Assay results from the NIST ThermoML archive (doi:10.1016/j.tca.2015.03.015).

Assay: mn = molality of the nth substance listed, in mol/kg
Conditions: 100 kPa, Liquid; for speed of sound: Frequency=3 MHz, Sing-around technique in a fixed-path interferometer; for mass density: Vibrating tube method

O=C(CO)[C@@H](O)[C@H](O)[C@H](O)CO [D-fructose] + O
Conditions	mass density, 288.15 K [kg/m3]	mass density, 293.15 K [kg/m3]	mass density, 298.15 K [kg/m3]	mass density, 303.15 K [kg/m3]	mass density, 308.15 K [kg/m3]	speed of sound, 288.15 K [m/s]	speed of sound, 298.15 K [m/s]	speed of sound, 303.15 K [m/s]	speed of sound, 308.15 K [m/s]
m1 = 0.05	1003.31	1002.37	1001	999.53	998.08	–	–	1512.2	–
m1 = 0.15	–	1009.21	–	–	1004.78	–	–	1518.1	–
m1 = 0.25	1017.01	1015.91	1014.56	1013.07	–	1484.3	1513	–	1534.2
m1 = 0.35	1023.52	1022.43	1021.07	1019.48	1017.69	1491.3	1519.1	1530.3	1539.9
